In patent publication US20230157282A1, “Synergistic Preservative/Personal Care Composition With A Polyglycerol Ester” (ARCH UK BIOCIDES LTD, priority 2020, published 2023):

System: Pseudomonas aeruginosa ATCC 15442
Test: Suspension test: log reduction of Pseudomonas aeruginosa after a specified contact time
Assay type: cell-based
Procedure: The target organism Pseudomonas aeruginosa ATCC 15442 was taken from freezer stocks and grown for 24 hours on tryptone soy agar (TSA) at 37° C. A second subculture was produced from the first and grown with the same conditions. A test suspension was then created by adding loopfuls of organism to tryptone buffered saline and adjusting the cell concentration to 1×10^8 and 5×10^8 CFU/ml using an internally established calibration curve spectrophotometer at a wavelength of 600 nm. To establish the precise CFU/ml a 1 ml aliquot was then taken from the test suspension and serially diluted down to 10^−6 and 10^−7, 1 ml of each dilution was then plated in duplicate using the pour plate method on to TSA. The plates were then incubated for 24 hours at 37° C. and enumerated.
For each Active Ingredient tested a series of 3 samples were prepared in sterile distilled water;
Test sample 1—Active Ingredient alone (to measure basic efficacy of the Active Ingredient)
Test sample 2—Active Ingredient in combination with polyglyceryl-10 caprylate/caprate (to measure the efficacy of the combination of active ingredient and polyglycerol ester)
Control—A control sample of polyglyceryl-10 caprylate/caprate was prepared in deionized water to measure the efficacy of polyglycerol ester alone.
Each test sample was prepared at a concentration 10% higher than that of the target concentration to account for the dilution effect from the addition of the test organism suspension during the test procedure.
A test mixture was prepared by adding a 0.1 ml aliquot of test organism suspension to a tube followed by 0.9 ml of test sample (prepared as above). The combination was then mixed and a timer started immediately.
Upon achieving the specified contact time the test mixture was deactivated by adding a 0.1 ml aliquot of the test mixture to 0.9 ml of neutralizing broth and the whole solution mixed. The solution was left for 5 minutes to ensure the action of the active ingredient was effectively neutralized.
To quantify the surviving number of organisms in the neutralized test mixture, 4×0.025 ml aliquots were taken and spot plated onto the surface of dried TSA. The plates were then incubated for 24 hours at 37° C.
For spot plating, colonies from the incubated plates were enumerated using the lower count limit of <1 and the upper count limit of >150. […] For the upper limit, if 156 colonies were counted on a plate, >150 would be recorded and 150 would be used for the calculation.
[formula] • N0 is the number of cells per ml in test mixture at the beginning of contact time. It is one-tenth of the weighted mean of N due to the tenfold dilution by the addition of the test product.
Enumeration and Calculation of T (Test Mixture) • First, the mean average of cfu per 0.025 ml spots was established using the below calculation;
Log Reduction Calculations (N0− T) • Before calculating the log reduction both N0 and T were converted into a logarithm base 10 value. For example;
To calculate the final log reduction the following calculation was used;
The test procedure outlined above was used to test for synergy between polyglyceryl-10 caprylate/caprate (PG10CC) and the various active ingredients listed in Table 1. Varying concentrations were prepared and were tested at the times listed in Table 1 for the presence of Pseudomonas aeruginosa.

## O=c1[nH]sc2ccccc12
Benzisothiazoline 100 ppm, contact time 48 hours
  Log Reduction: 3.84

## Zinc pyrithione
Zinc pyrithione 400 ppm, contact time 7 days
  Log Reduction: 2.88

## O=C(O)c1ccccc1 [Benzoic acid]
Benzoic acid 2000 ppm, contact time 2 hours
  Log Reduction: <2.85

## [H]/N=C(\N/C(=N/[H])NCCCCCCNC(=N)NC(=N)Nc1ccc(Cl)cc1)Nc1ccc(Cl)cc1 [chlorohexidine]
Chlorohexidine 64 ppm, contact time 5 minutes
  Log Reduction: 3.44

## O=C(O)CO [Glycolic acid]
Glycolic acid 1000 ppm, contact time 30 minutes
  Log Reduction: 2.85

## CC(O)C(=O)O (stereo not drawn) [Lactic acid]
Lactic acid 2000 ppm, contact time 3 hours
  Log Reduction: 4.03
